From PubChem BioAssay (NCI)
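Five compound concentrations were applied to cells in 96-well plates for 48 hours; endpoints were derived by simple linear interpolation of the resulting dose-response curve. Definition used: TGI = concentration required for complete inhibition of growth.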

Assays:
Experiment in all cases: NCI-60 cell line screen, 48 h
A549 NSCLC = test system: A549 NSCLC
COLO 205 colon = test system: COLO 205 colon
DMS 114 small cell lung = test system: DMS 114 small cell lung
DMS 273 small cell lung = test system: DMS 273 small cell lung
HCC-2998 colon = test system: HCC-2998 colon
HCT-116 colon = test system: HCT-116 colon
HL-60(TB) leukemia = test system: HL-60(TB) leukemia
HOP-18 NSCLC = test system: HOP-18 NSCLC
HOP-62 NSCLC = test system: HOP-62 NSCLC
IGROV1 ovarian = test system: IGROV1 ovarian
M19-MEL melanoma = test system: M19-MEL melanoma
MALME-3M melanoma = test system: MALME-3M melanoma
NCI-H522 lung = test system: NCI-H522 lung
OVCAR-5 ovarian = test system: OVCAR-5 ovarian
SF-268 CNS = test system: SF-268 CNS
SF-295 CNS = test system: SF-295 CNS
SN12C renal = test system: SN12C renal
UACC-62 melanoma = test system: UACC-62 melanoma
XF 498 CNS = test system: XF 498 CNS
M14 melanoma = test system: M14 melanoma

Measured: TGI

COc1nc(NC2OC(CO)C(O)C(O)C2O)c(N)c(=O)[nH]1 (configuration not stated)
not listed: M14 melanoma
> 100 µM: all other assays above

O=C1CCC2COc3ccc(O)c1c32 (configuration not stated)
not listed: HCC-2998 colon | HOP-62 NSCLC | MALME-3M melanoma | NCI-H522 lung | OVCAR-5 ovarian | SF-268 CNS
> 100 µM: all other assays above

COC(=O)Cc1c(C2C(CC(=O)OC)c3ccccc3N2C2OC(CO)C(O)C(O)C2O)[nH]c2ccccc12 (configuration not stated)
not listed: DMS 114 small cell lung | DMS 273 small cell lung | HL-60(TB) leukemia | HOP-18 NSCLC | M19-MEL melanoma | XF 498 CNS
> 100 µM: all other assays above
